Laboratory results taken from PMC9246869, “Allosteric inhibition of PPM1D serine/threonine phosphatase via an altered conformational state” (Nature Communications, 2022).
“And” between values parts separate entries of the source, which are not always exact repeats. Equal values may be shown once.

Experiments:
[1] = molecular target: T1, PPM1D1–420 (Homo sapiens, UniProt O15297); assay: FDP (fluorescein diphosphate) enzymatic assay; type: biochemical; set-up: FDP assay rate (Fig 3B): unit not given here; details: for FDP assay rate (Fig 3B): triplicates; for FDP Assay, signal relative to 0 nM GSK (=100): PPM1D1-420, individual runs, listed as GSK
T1 construct: PPM1D1–420 was PCR-amplified from the synthesized gene with BsaI sites; His(6)-SUMO (N, cleaved yes); made in house; host or cells: E. coli BL21 (DE3)
T1 sequence (O15297 1-420): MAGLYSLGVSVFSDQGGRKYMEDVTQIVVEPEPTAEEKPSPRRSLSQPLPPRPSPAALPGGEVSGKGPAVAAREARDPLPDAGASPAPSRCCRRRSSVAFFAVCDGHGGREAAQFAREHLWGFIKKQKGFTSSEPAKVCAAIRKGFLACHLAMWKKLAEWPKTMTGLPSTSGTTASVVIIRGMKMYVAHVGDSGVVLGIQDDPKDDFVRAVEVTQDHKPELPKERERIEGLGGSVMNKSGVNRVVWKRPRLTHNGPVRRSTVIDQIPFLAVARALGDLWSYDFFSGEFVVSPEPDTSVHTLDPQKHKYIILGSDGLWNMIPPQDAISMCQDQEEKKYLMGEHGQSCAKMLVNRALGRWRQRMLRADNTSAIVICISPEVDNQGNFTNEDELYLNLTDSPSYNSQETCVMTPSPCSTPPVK
Description: The FDP assay was adapted from reported protocol with minor modifications. Fluorescein diphosphate tetra-ammonium salt (CAS 217305-49-2) was purchased from AAT Bioquest (Cat No.11600). The assay was carried out on a 384-well plate (Corning Cat No.3575) with assay buffer containing 50 mM Tris (pH 7.5), 50 mM NaCl, 30 mM MgCl2, 0.01% tween 20, and 2% DMSO. Reactions were initiated with the addition of FDP to a solution containing wild-type PPM1D or one of its variants, to a final concentration of 5 nM for PPM1D and 100 μM for FDP (or as indicated in Kcat/KM measurements). A fluorescent signal was detected on a Spectramax microplate reader (485/530 nm) for the next 15 min at room temperature with an interval for data collection of 45 s. For the IC50 measurement, the compound was pre-incubated with PPM1D for 1 h before addition of the substrate.

[2] = molecular target: T1, PPM1D1–420; assay: Sedimentation velocity analytical ultracentrifugation (SV-AUC); details: PPM1D1–420 15 µM with 3x compound, 2% DMSO
Description: AUC experiments were done using an Optima ultracentrifuge (Beckman Instruments). Proteins were dialyzed at 4 °C prior to each experiment in 20 mM HEPES (pH 7.4), 100 mM NaCl, 5 mM MgCl2, 0.1 mM TCEP. Sedimentation velocity (SV-AUC) experiments were conducted using an An50 Ti rotor at 50,000 rpm and 20 °C following temperature equilibration for 1 h prior to the start of the experiment. […] We, therefore, present these SV-AUC data as relative sedimenting populations with their experimentally observed S values. Absorbance data were collected at 280 nm. SedFIT was used to model the sedimentation coefficient distributions [c(s) analysis] for each experiment[38],[39]. Data were then refined using the c(s) with a conformational change model to better estimate the relative populations observed for PPM1D1–420. SedNTerp was used to calculate protein parameters. Images were generated using GUSSI[41].

For `Cc1ncc(Cl)cc1NCc1ccc(C(=O)N[C@@H](CC2CCCC2)C(=O)NC2CC2)s1` [GSK2830371], the mode of inhibition ([1]; Michaelis–Menten kinetics, FDP hydrolysis) was “noncompetitive inhibitor”, the IC50 ([1]; PPM1D1–420, compound pre-incubated 1 h) was roughly 6 nM and the “FDP assay rate (Fig 3B)” value ([1]; [FDP] 25 uM, inhibitor 0.98 (unit not given)) was 0.1081 and 0.1018 and 0.09496. The “FDP assay rate (Fig 3B)” value ([1]; [FDP] 25 uM, inhibitor 1.95 (unit not given)) was 0.0895 and 0.07795 and 0.08008, the “FDP assay rate (Fig 3B)” value ([1]; [FDP] 25 uM, inhibitor 3.9 (unit not given)) was 0.06795 and 0.05591 and 0.06219 and the “FDP assay rate (Fig 3B)” value ([1]; [FDP] 25 uM, inhibitor 7.8 (unit not given)) was 0.03815 and 0.02398 and 0.0308. For the same compound, the “FDP assay rate (Fig 3B)” value ([1]; [FDP] 25 uM, inhibitor 15.6 (unit not given)) was 0.01708 and 0.01354 and 0.01271, the “FDP assay rate (Fig 3B)” value ([1]; [FDP] 50 uM, inhibitor 0.98 (unit not given)) was 0.154 and 0.1613 and 0.1584 and the “FDP assay rate (Fig 3B)” value ([1]; [FDP] 50 uM, inhibitor 1.95 (unit not given)) was 0.1193 and 0.1343 and 0.126. The “FDP assay rate (Fig 3B)” value ([1]; [FDP] 50 uM, inhibitor 3.9 (unit not given)) was 0.09839 and 0.1118 and 0.09908, the “FDP assay rate (Fig 3B)” value ([1]; [FDP] 50 uM, inhibitor 7.8 (unit not given)) was 0.04672 and 0.06633 and 0.05157 and the “FDP assay rate (Fig 3B)” value ([1]; [FDP] 50 uM, inhibitor 15.6 (unit not given)) was 0.02583 and 0.03504 and 0.03088. The “FDP assay rate (Fig 3B)” value ([1]; [FDP] 100 uM, inhibitor 0.98 (unit not given)) was 0.2227 and 0.2316 and 0.2315, the “FDP assay rate (Fig 3B)” value ([1]; [FDP] 100 uM, inhibitor 1.95 (unit not given)) was 0.1741 and 0.1931 and 0.1914 and the “FDP assay rate (Fig 3B)” value ([1]; [FDP] 100 uM, inhibitor 3.9 (unit not given)) was 0.1254 and 0.1375 and 0.1433. For the same compound, the “FDP assay rate (Fig 3B)” value ([1]; [FDP] 100 uM, inhibitor 7.8 (unit not given)) was 0.08834 and 0.102 and 0.1128, the “FDP assay rate (Fig 3B)” value ([1]; [FDP] 100 uM, inhibitor 15.6 (unit not given)) was 0.04867 and 0.06283 and 0.04506 and the “FDP assay rate (Fig 3B)” value ([1]; [FDP] 100 uM, inhibitor 31.3 (unit not given)) was 0.02471 and 0.03171 and 0.02136. For the same compound, the “FDP assay rate (Fig 3B)” value ([1]; [FDP] 200 uM, inhibitor 0.98 (unit not given)) was 0.2541 and 0.2837 and 0.2718, the “FDP assay rate (Fig 3B)” value ([1]; [FDP] 200 uM, inhibitor 1.95 (unit not given)) was 0.1754 and 0.2253 and 0.2249 and the “FDP assay rate (Fig 3B)” value ([1]; [FDP] 200 uM, inhibitor 3.9 (unit not given)) was 0.1214 and 0.1628 and 0.1643. The “FDP assay rate (Fig 3B)” value ([1]; [FDP] 200 uM, inhibitor 7.8 (unit not given)) was 0.119 and 0.111 and 0.098, the “FDP assay rate (Fig 3B)” value ([1]; [FDP] 200 uM, inhibitor 15.6 (unit not given)) was 0.06395 and 0.07091 and 0.07759 and the “FDP assay rate (Fig 3B)” value ([1]; [FDP] 200 uM, inhibitor 31.3 (unit not given)) was 0.03445 and 0.04201 and 0.04948. For the same compound, the “FDP assay rate (Fig 3B)” value ([1]; [FDP] 200 uM, inhibitor 62.5 (unit not given)) was 0.03178 and 0.03296 and 0.03025, the “FDP assay rate (Fig 3B)” value ([1]; [FDP] 400 uM, inhibitor 0.98 (unit not given)) was 0.3661 and 0.3766 and 0.3211 and the “FDP assay rate (Fig 3B)” value ([1]; [FDP] 400 uM, inhibitor 1.95 (unit not given)) was 0.2969 and 0.3135 and 0.2543. For the same compound, the “FDP assay rate (Fig 3B)” value ([1]; [FDP] 400 uM, inhibitor 3.9 (unit not given)) was 0.2182 and 0.2333 and 0.1765, the “FDP assay rate (Fig 3B)” value ([1]; [FDP] 400 uM, inhibitor 7.8 (unit not given)) was 0.2094 and 0.221 and 0.1442 and the “FDP assay rate (Fig 3B)” value ([1]; [FDP] 400 uM, inhibitor 15.6 (unit not given)) was 0.1122 and 0.1116 and 0.1013. For the same compound, the “FDP assay rate (Fig 3B)” value ([1]; [FDP] 400 uM, inhibitor 31.3 (unit not given)) was 0.06577 and 0.07799 and 0.08598, the “FDP assay rate (Fig 3B)” value ([1]; [FDP] 400 uM, inhibitor 62.5 (unit not given)) was 0.04782 and 0.06273 and 0.0378 and the “FDP assay rate (Fig 3B)” value ([1]; [FDP] 400 uM, inhibitor 125 (unit not given)) was 0.03598 and 0.04023 and 0.04026. The “FDP Assay, signal relative to 0 nM GSK (=100)” value ([1]; [GSK] 0.292969 nM) was 86.8743 and 86.4893, the “FDP Assay, signal relative to 0 nM GSK (=100)” value ([1]; [GSK] 0.585938 nM) was 87.0301 and 86.6545 and the “FDP Assay, signal relative to 0 nM GSK (=100)” value ([1]; [GSK] 1.17188 nM) was 79.2709 and 79.2522. The “FDP Assay, signal relative to 0 nM GSK (=100)” value ([1]; [GSK] 2.34375 nM) was 68.8335 and 60.4469, the “FDP Assay, signal relative to 0 nM GSK (=100)” value ([1]; [GSK] 4.6875 nM) was 48.948 and 39.1972 and the “FDP Assay, signal relative to 0 nM GSK (=100)” value ([1]; [GSK] 9.375 nM) was 35.4075 and 36.7435. The “FDP Assay, signal relative to 0 nM GSK (=100)” value ([1]; [GSK] 18.75 nM) was 24.9745 and 29.6638, the “FDP Assay, signal relative to 0 nM GSK (=100)” value ([1]; [GSK] 37.5 nM) was 10.1395 and 7.848 and the “FDP Assay, signal relative to 0 nM GSK (=100)” value ([1]; [GSK] 75 nM) was 7.727 and 7.844. For the same compound, the “FDP Assay, signal relative to 0 nM GSK (=100)” value ([1]; [GSK] 150 nM) was 2.646 and -0.6809, the “FDP Assay, signal relative to 0 nM GSK (=100)” value ([1]; [GSK] 300 nM) was 0.03588 and 0.07574 and the “sedimentation peak (SV-AUC) in presence of compound” value [2] was 2.69 S.
